In patent publication US8618082B2, “Lupeol anti-tumor agent and uses thereof” (Wisconsin Alumni Research Foundation, priority 2004, dated 2013):

Tests used:
epidermal ODC = test: TPA-induced epidermal ODC enzyme activity (14CO2 release); assay type: in vivo, mouse; settings: for inhibition of TPA-caused induction of epidermal ODC activity: p<0.005
Description: FIG. 3. Inhibitory effect of Lupeol on TPA-induced epidermal ODC activity: ODC enzyme activity was determined using 0.4 ml epidermal supernatant by measuring the release of ^14CO2 from the D, L-[^14C]ornithine. Data is represented as mean±SE of four individual values (* represents p<0.005). The epidermis from two animals was pooled for each determination.
The animals were shaved on the dorsal side of the skin, divided into four groups and treated topically on the shaved area with either 0.4 ml vehicle (acetone), or TPA (3.2 nmol/0.4 ml acetone/animal, v/v), or Lupeol (1 or 2 mg/0.2 ml acetone/animal, w/v) followed 30 min later with TPA (3.2 nmol/0.2 ml acetone/animal). Animals were sacrificed at different times point i.e. 6, 12, 24 and 48 h post TPA treatment. The epidermis was separated from the whole skin and homogenized in 0.1 M Tris-HCl buffer (pH 7.2) using a Polytron tissue homogenizer (Brinkmann Instruments, Westbury, N.Y., USA) at 100,000×g supernatant, and microsomal fractions were prepared as described earlier (Katiyar and Mukhtar, 1997). The sample of 6 h treatment group was used to assess the ODC activity as this time point has previously been shown for optimal induction of the enzyme (Katiyar er al., 1996).
ODC enzyme activity was determined using 0.4 ml epidermal supernatant by measuring the release of ^14CO2 from the D, L-[^14C] ornithine as reported earlier. (Gupta et al., 1999). The epidermis from the skin was homogenized at 4° C. in a glass-to-glass homogenizer in 10 volumes of ODC buffer [50 mM Tris-HCl buffer (pH 7.5) containing 0.1 mM EDTA, 0.1 mM dithiothreitol, 0.1 mM pyridoxal-5-phosphate, 1 mM 2-mercaptoethanol and 0.1% Tween-80]. The homogenate was centrifuged at 100,000×g at 4° C. and the supernatant was used for enzyme determination. […] The radioactivity was measured in a Beckman LS 6000 SC liquid scintillation counter. Enzyme activity was expressed as pmol CO2 released/h/mg protein.

epidermal ODC protein = test: TPA-induced epidermal ODC protein expression (western blot); assay type: in vivo, mouse
Description: FIG. 4. Inhibitory effect of Lupeol on TPA-induced epidermal ODC, iNOS and COX-2 protein expression in CD-1 mice: At different times after treatment, the animals were sacrificed, epidermal protein lysate was prepared, and ODC and COX-2 protein expression were determined. Equal loading of protein was confirmed by stripping the immunoblot and reprobing it for β-actin. The immunoblots shown here are representative of three independent experiments with similar results. The values above each lane indicate relative density of the band normalized to β-actin.
The animals were shaved on the dorsal side of the skin, divided into four groups and treated topically on the shaved area with either 0.4 ml vehicle (acetone), or TPA (3.2 nmol/0.4 ml acetone/animal, v/v), or Lupeol (1 or 2 mg/0.2 ml acetone/animal, w/v) followed 30 min later with TPA (3.2 nmol/0.2 ml acetone/animal). Animals were sacrificed at different times point i.e. 6, 12, 24 and 48 h post TPA treatment. […]
Epidermis from the whole skin was separated as described earlier (Katiyar et al., 1999) and was homogenized in ice-cold lysis buffer [50 mM Tris-HCl, 150 mM NaCl, 1 mM EGTA, 1 mM EDTA, 20 mM NaF, 100 mM Na3VO4, 0.5% NP-40, 1% Triton X-100, 1 mM PMSF (pH 7.4)] with freshly added protease inhibitor cocktail, Protease Inhibitor Cocktail Set III (Calbiochem, La Jolla, Calif., USA). […] The protein content in the lysates was measured by DC BioRad assay (BioRad Laboratories, Hercules, Calif.) as per the manufacturer's protocol.
For western blot analysis, 40 μg of the protein was resolved over 8-12% polyacrylamide gels and transferred to a nitrocellulose membrane. […] This was followed by incubation with anti-mouse or anti-rabbit secondary antibody horse-radish peroxidase (Amersham Life Sciences, Inc., USA) for 1 h and then washed several times and detected by chemiluminescence ECL kit, (Amersham Life Sciences, Inc., USA) and autoradiography using XAR-5 film obtained from Eastman Kodak Co. (Rochester, N.Y., USA). […]

[1] = tested on: androgen-sensitive prostatic cancer cells (LNCaP); test: Viability of LNCaP cells, MTT assay; assay type: cell-based, human; settings: for cell death of LNCaP cells: 48 hours
Description: FIG. 10 depicts effect of Lupeol on viability of androgen-sensitive prostatic cancer cells (LNCaP). Cells were treated with specified concentrations of Lupeol for 48 h, and cell viability was determined by MTT assay. The values are represented as the percent viable cells where vehicle-treated cells were regarded as 100% viable. Data represents mean value of percent viable cells±S.E of three independent experiments.

In the case of C=C(C)[C@@H]1CC[C@]2(C)CC[C@]3(C)[C@H](CC[C@@H]4[C@@]5(C)CC[C@H](O)C(C)(C)[C@@H]5CC[C@]43C)[C@@H]12 [Lupeol, Lup-20(29)-en-3β-ol], the “inhibition of TPA-caused induction of epidermal ODC activity” value (epidermal ODC; Lupeol 1 mg/animal topical 30 min prior to TPA) is reported as 50%, the “inhibition of TPA-caused induction of epidermal ODC activity” value (epidermal ODC; Lupeol 2 mg/animal topical 30 min prior to TPA) is reported as 75% and the “basal epidermal ODC activity” value (epidermal ODC; Lupeol alone (2 mg/animal)) is reported as “without any effect”. The “epidermal ODC protein expression after Lupeol alone” value (epidermal ODC protein; Lupeol alone up to 2 mg/animal) was “without any effect on enzyme level”, the “inhibition of TPA-caused induction of epidermal ODC protein expression (densitometry)” value (epidermal ODC protein; Lupeol-pretreated animals, 1 or 2 mg, all time points) was 50-70% and the “cell death of LNCaP cells” value ([1]; 40-60 μM Lupeol) was 75-90%. For the same molecule, the “cell viability of LNCaP cells” value ([1]; Lupeol 5-30 μM, 48 and 72 h, time and dose dependent) was “significant inhibition of cell viability” and the “cell death of LNCaP cells” value ([1]; Lupeol up to 30 μM) was 70%.
